Experimental data taken from US20150087673A1, “METHODS FOR USING AND BIOMARKERS FOR AMPK-ACTIVATING COMPOUNDS” (RIGEL PHARMACEUTICALS, INC., priority 2013, published 2015).

Tested on: AMPK
Assay: AMPK activation assay (enzyme-linked immunosorbent assay)
Type: cell-based
In short: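 Test compounds were added, and kinase activation was then detected by immunoassay following established kit procedures.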

EC50, < 500 nM:
COc1ccc(C(=O)C2CCN(C(=O)c3ccc(C(=O)NC4CCN(Cc5ccc(OC(F)(F)F)cc5)CC4)cn3)CC2)cc1 [Compound 430, 6-(4-(4-methoxybenzoyl)piperidine-1-carbonyl)-N-(1-(4-(trifluoromethoxy)benzyl)piperidin-4-yl)nicotinamide]
N#Cc1ccc(CN2CCC(NC(=O)c3ccc(C(=O)N4CCC(Oc5ccc(N)cc5)CC4)nc3)CC2)cc1 [Compound 364, 6-(4-(4-aminophenoxy)piperidine-1-carbonyl)-N-(1-(4-cyanobenzyl)piperidin-4-yl)nicotinamide]
COc1ccc(OC2CCN(C(=O)c3ccc(C(=O)N[C@H]4CC[C@@H](Oc5ccc(OC)cc5)CC4)nc3)CC2)cc1 [Compound 186, N-((cis)-4-(4-methoxyphenoxy)cyclohexyl)-5-(4-(4-methoxyphenoxy)piperidine-1-carbonyl)picolinamide]
COc1cccc(Oc2ccc(NC(=O)c3ccc(C(=O)N4CCN(Cc5ccc(F)cc5)CC4)cn3)cc2)c1 [Compound 57, 5-(4-(4-fluorobenzyl)piperazine-1-carbonyl)-N-(4-(3-methoxyphenoxy)phenyl)picolinamide]
CS(=O)(=O)c1ccc(OC2CCN(C(=O)c3ccc(C(=O)NC4CCN(Cc5cccc(OC(F)(F)F)c5)CC4)nc3)CC2)cc1 [Compound 242, 5-(4-(4-(methylsulfonyl)phenoxy)piperidine-1-carbonyl)-N-(1-(3-(trifluoromethoxy)benzyl)piperidin-4-yl)picolinamide]
O=C(N[C@H]1CC[C@@H](Oc2ccc(F)cc2)CC1)c1ccc(C(=O)N2CCC(C(=O)c3ccc(F)cc3)CC2)cn1 [Compound 304, 5-(4-(4-fluorobenzoyl)piperidine-1-carbonyl)-N-((cis)-4-(4-fluorophenoxy)cyclohexyl)picolinamide]
CC(=O)c1ccc(Oc2ccc(NC(=O)c3ccc(C(=O)N4CCN(c5ccc(S(=O)(=O)C(C)C)cc5)CC4)nc3)cn2)cc1 [Compound 489, N-(6-(4-acetylphenoxy)pyridin-3-yl)-6-(4-(4-(isopropylsulfonyl)phenyl)piperazine-1-carbonyl)nicotinamide]
O=C(Nc1ccc(-c2ccsc2)cc1)c1ccc(C(=O)N2CCN(Cc3ccc(F)cc3)CC2)cn1 [Compound 62, 5-(4-(4-fluorobenzyl)piperazine-1-carbonyl)-N-(4-(thiophen-3-yl)phenyl)picolinamide]
N#Cc1ccc(CN2CCC(NC(=O)c3ccc(C(=O)N4CCC(C(=O)c5ccc(C#N)cc5)CC4)cn3)CC2)cc1 [Compound 369, 5-(4-(4-cyanobenzoyl)piperidine-1-carbonyl)-N-(1-(4-cyanobenzyl)piperidin-4-yl)picolinamide]
N#Cc1ccc(CN2CCC(NC(=O)c3ccc(C(=O)N4CCC(C(=O)c5ccc(N=[N+]=[N-])cc5)CC4)nc3)CC2)cc1 [Compound 240, 6-(4-(4-azidobenzoyl)piperidine-1-carbonyl)-N-(1-(4-cyanobenzyl)piperidin-4-yl)nicotinamide]
N#Cc1cccc(Oc2ccc(NC(=O)c3ccc(C(=O)N4CCN(Cc5ccc(F)cc5)CC4)cn3)cn2)c1 [Compound 64, 5-(4-(4-fluorobenzyl)piperazine-1-carbonyl)-(6-(3-cyanophenoxy)pyridin-3-yl)picolinamide]
N#Cc1ccc(CN2CCC(NC(=O)c3ccc(C(=O)N4CCC(Oc5cccc(C#N)c5)CC4)cn3)CC2)cc1 [Compound 155, N-(1-(4-cyanobenzyl)piperidin-4-yl)-5-(4-(3-cyanophenoxy)piperidine-1-carbonyl)picolinamide]
N#Cc1ccc(CN2CCC(NC(=O)c3ccc(C(=O)N4CCC(C(=O)c5ccc(N6CCOCC6)cc5)CC4)cn3)CC2)cc1 [Compound 376, N-(1-(4-cyanobenzyl)piperidin-4-yl)-5-(4-(4-morpholinobenzoyl)piperidine-1-carbonyl)picolinamide]
COc1ccc(C(=O)C2CCN(C(=O)c3ccc(C(=O)N[C@@H]4CCN(Cc5ccc(N6CCCC6)cc5)C[C@H]4F)cn3)CC2)cc1 (relative stereo) [Compound 352, N-((trans)-3-fluoro-1-(4-(pyrrolidin-1-yl)benzyl)piperidin-4-yl)-6-(4-(4-methoxybenzoyl)piperidine-1-carbonyl)nicotinamide]
COc1cccc(CN2CCC(NC(=O)c3ccc(C(=O)N4CCC(Oc5ccc(S(C)(=O)=O)cc5)CC4)cn3)CC2)c1 [Compound 241, N-(1-(3-methoxybenzyl)piperidin-4-yl)-5-(4-(4-(methylsulfonyl)phenoxy)piperidine-1-carbonyl)picolinamide]
N#Cc1ccc(O[C@H]2CC[C@@H](NC(=O)c3ccc(C(=O)N4CCC(C(=O)c5ccc(N6CCCC6)cc5)CC4)nc3)CC2)cc1 [Compound 442, N-((cis)-4-(4-cyanophenoxy)cyclohexyl)-6-(4-(4-(pyrrolidin-1-yl)benzoyl)piperidine-1-carbonyl)nicotinamide]
N#Cc1ccc(CN2CCC(NC(=O)c3ccc(C(=O)N4CCN(Cc5cc(F)cc(F)c5)CC4)cn3)CC2)cc1 [Compound 140, N-(1-(4-cyanobenzyl)piperidin-4-yl)-5-(4-(3,5-difluorobenzyl)piperazine-1-carbonyl)picolinamide]
COc1ccc(CC2CCN(C(=O)c3ccc(C(=O)NC4CCN(Cc5ccc(C#N)cc5)CC4)nc3)CC2)cc1 [Compound 131, N-(1-(4-cyanobenzyl)piperidin-4-yl)-5-(4-(4-methoxybenzyl)piperidine-1-carbonyl)picolinamide]
O=C(Nc1ccc(-c2ccccc2)cc1)c1ccc(C(=O)N2CCN(Cc3ccc(F)cc3)CC2)cn1 [Compound 11]
N#Cc1ccc(CN2CCC(NC(=O)c3ccc(C(=O)N4CCC(Oc5ccc(S(F)(F)(F)(F)F)cc5)CC4)nc3)CC2)cc1 [Compound 493, N-(1-(4-cyanobenzyl)piperidin-4-yl)-6-(4-(4-(pentafluorosulfanyl)phenoxy)piperidine-1-carbonyl)nicotinamide]
COc1ccc(C(=O)C2CCN(C(=O)c3ccc(C(=O)N[C@H]4CC[C@@H](Oc5ccc(F)cc5)CC4)nc3)CC2)cc1 [Compound 311, N-((cis)-4-(4-fluorophenoxy)cyclohexyl)-5-(4-(4-methoxybenzoyl)piperidine-1-carbonyl)picolinamide]
N#Cc1ccc(CN2CCC(NC(=O)c3ccc(C(=O)N4CCC(C(=O)c5ccc(N6CCCC6)cc5)CC4)nc3)CC2)cc1F [Compound 447, N-(1-(4-cyano-3-fluorobenzyl)piperidin-4-yl)-6-(4-(4-(pyrrolidin-1-yl)benzoyl)piperidine-1-carbonyl)nicotinamide]

EC50, > 10000 nM:
CS(=O)(=O)Nc1ccc(CN2CCC(NC(=O)c3ccc(C(=O)N4CCC(Oc5ccc(C#N)cc5)CC4)nc3)CC2)cc1 [Compound 217, 6-(4-(4-cyanophenoxy)piperidine-1-carbonyl)-N-(1-(4-(methylsulfonamido)benzyl)piperidin-4-yl)nicotinamide]
N#Cc1ccc(CN2CCC(NC(=O)c3ccc(C(=O)N4CCNCC4)cn3)CC2)cc1 [Compound 2, N-(1-(4-cyanobenzyl)piperidin-4-yl)-5-(piperazine-1-carbonyl)picolinamide]
N#Cc1ccc(-c2nnc3n2CCN(C(=O)c2ccc(C(=O)NC4CCN(Cc5cc(F)cc(F)c5)CC4)nc2)C3)cc1 [Compound 314, 5-(3-(4-cyanophenyl)-5,6,7,8-tetrahydro-[1,2,4]triazolo[4,3-a]pyrazine-7-carbonyl)-N-(1-(3,5-difluorobenzyl)piperidin-4-yl)picolinamide]

EC50, 1000 to 5000 nM:
O=C(NC1CCN(Cc2ccc(F)cc2)CC1)c1cccc(C(=O)NC2CCN(Cc3ccc(F)cc3)CC2)n1 [Compound 87, N2,N6-bis(1-(4-fluorobenzyl)piperidin-4-yl)pyridine-2,6-dicarboxamide]
COc1ccc(C(=O)C2CCN(C(=O)c3ccc(C(=O)N[C@@H]4CCN(Cc5csc(C)n5)C[C@@H]4F)cn3)CC2)cc1 [Compound 427, N-((3S,4R)-3-fluoro-1-((2-methylthiazol-4-yl)methyl)piperidin-4-yl)-6-(4-(4-methoxybenzoyl)piperidine-1-carbonyl)nicotinamide]
O=C(Nc1ccc(Oc2ccc(F)cc2)nc1)c1ccc(C(=O)N2CCC(Oc3ccc(NS(=O)(=O)C4CC4)cc3)CC2)nc1 [Compound 449, 6-(4-(4-(cyclopropanesulfonamido)phenoxy)piperidine-1-carbonyl)-N-(6-(4-fluorophenoxy)pyridin-3-yl)nicotinamide]
O=C(NC1CCN(c2ccc(F)cc2)CC1)c1ccc(C(=O)N2CCN(Cc3ccc(F)cc3)CC2)nc1 [Compound 404, 6-(4-(4-fluorobenzyl)piperazine-1-carbonyl)-N-(1-(4-fluorophenyl)piperidin-4-yl)nicotinamide]
N#Cc1ccc(CNC(=O)c2cccc(-c3ccc(C(=O)N4CCN(Cc5ccc(F)cc5)CC4)cn3)c2)cc1 [Compound 42, (6-(3-(4-cyanobenzylcarbamoyl)phenyl)pyridin-3yl)(4-(4-fluorobenzyl)piperazin-1-yl)methanone]
CS(=O)(=O)c1ccc(C(=O)C2CCN(C(=O)c3ccc(C(=O)NC4CCN(Cc5ccc(N6CCCC6)cc5)CC4)cn3)CC2)cc1 [Compound 229, 6-(4-(4-(methylsulfonyl)benzoyl)piperidine-1-carbonyl)-N-(1-(4-(pyrrolidin-1-yl)benzyl)piperidin-4-yl)nicotinamide]
N#Cc1ccc(CN2CCC(NC(=O)c3ccc(C(=O)N4CCN(C(=O)c5ccc(C(=O)NC6CCN(Cc7ccc(C#N)cc7)CC6)nc5)CC4)cn3)CC2)cc1 [Compound 75, 5,5′-(piperazine-1,4-diylbis(oxomethylene))bis(N-(1-(4-cyanobenzyl)piperidin-4-yl)picolinamide)]

EC50, 500 to 1000 nM:
CS(=O)(=O)c1ccc(C(=O)C2CCN(C(=O)c3ccc(C(=O)N[C@@H]4CCN(Cc5ccc(C#N)cc5)C[C@H]4F)nc3)CC2)cc1 (relative stereo) [Compound 252, N-((trans)-1-(4-cyanobenzyl)-3-fluoropiperidin-4-yl)-5-(4-(4-(methylsulfonyl)benzoyl)piperidine-1-carbonyl)picolinamide]
